Measurements from patent US8288411B2, “Pyrrolidines and piperidines as orexin receptor antagonists” (Actelion Pharmaceuticals Ltd., priority 2007, dated 2012).
Read-outs that look alike come from different tables or passages of the source.

Columns and labels:
human orexin-1 receptor = molecular target: T1, human orexin-1 receptor (Homo sapiens, UniProt O43613); assay: FLIPR intracellular calcium assay, orexin receptor antagonistic activity, CHO cells expressing human orexin-1 receptor; assay type: cell-based; details: read-out: OX1 IC50
T1 construct: expressed in transfected cells; host or cells: CHO cells (G418 selection)
T1 sequence (O43613 1-425): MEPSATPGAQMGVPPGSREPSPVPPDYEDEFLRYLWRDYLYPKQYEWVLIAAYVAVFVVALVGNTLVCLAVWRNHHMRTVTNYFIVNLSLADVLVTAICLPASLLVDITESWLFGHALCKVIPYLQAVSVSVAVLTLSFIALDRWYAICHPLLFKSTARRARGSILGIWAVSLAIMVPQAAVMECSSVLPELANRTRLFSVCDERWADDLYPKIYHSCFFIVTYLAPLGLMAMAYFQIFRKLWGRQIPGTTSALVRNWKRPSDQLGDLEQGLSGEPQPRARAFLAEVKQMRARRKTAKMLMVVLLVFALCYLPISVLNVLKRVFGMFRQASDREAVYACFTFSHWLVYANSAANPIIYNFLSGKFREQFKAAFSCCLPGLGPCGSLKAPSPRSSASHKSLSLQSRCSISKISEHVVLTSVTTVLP
Description: (§1) The orexin receptor antagonistic activity of the compounds of formula (I) is determined in accordance with one of the following experimental methods.
(§2) Chinese hamster ovary (CHO) cells expressing the human orexin-1 receptor and the human orexin-2 receptor, respectively, are grown in culture medium (Ham F-12 with L-Glutamine) containing 300 μg/ml G418, 100 U/ml penicillin, 100 μg/ml streptomycin and 10% heat inactivated fetal calf serum (FCS). The cells are seeded at 20'000 cells/well into 384-well black clear bottom sterile plates (Greiner). The seeded plates are incubated overnight at 37° C. in 5% CO2.
(§3) Human orexin-A as an agonist is prepared as 1 mM stock solution in MeOH: water (1:1), diluted in HBSS containing 0.1% bovine serum albumin (BSA), NaHCO3: 0.375 g/l and 20 mM HEPES for use in the assay at a final concentration of 3 nM.
(§4) Antagonists are prepared as 10 mM stock solution in DMSO, then diluted in 384-well plates, first in DMSO, then in HBSS containing 0.1% bovine serum albumin (BSA), NaHCO3: 0.375 g/l and 20 mM HEPES.
(§5) On the day of the assay, 50 μl of staining buffer (HBSS containing 1% FCS, 20 mM HEPES, NaHCO3: 0.375 g/l, 5 mM probenecid (Sigma) and 3 μM of the fluorescent calcium indicator fluo-4 AM (1 mM stock solution in DMSO, containing 10% pluronic) is added to each well.
(§6) The 384-well cell-plates are incubated for 50 min at 37° C. in 5% CO2 followed by equilibration at RT for 30-120 min before measurement.
(§7) Within the Fluorescent Imaging Plate Reader (FLIPR2 or FLIPR Tetra, Molecular Devices), antagonists are added to the plate in a volume of 10 μl/well, incubated for 10 min and finally 10 μl/well of agonist is added. Fluorescence is measured for each well at 1 second intervals, and the height of each fluorescence peak is compared to the height of the fluorescence peak induced by 3 nM orexin-A with vehicle in place of antagonist. For each antagonist, the IC50 value (the concentration of compound needed to inhibit 50% of the agonistic response) is determined. Optimized conditions may be achieved by adjustment of pipetting speed and cell splitting regime. The calculated IC50 values of the compounds may fluctuate depending on the daily cellular assay performance. Fluctuations of this kind are known to those skilled in the art.

human orexin-2 receptor = molecular target: T2, human orexin-2 receptor (Homo sapiens, UniProt O43614); assay: FLIPR intracellular calcium assay, orexin receptor antagonistic activity, CHO cells expressing human orexin-2 receptor; assay type: cell-based; details: read-out: OX2 IC50
T2 construct: expressed in transfected cells; host or cells: CHO cells (G418 selection)
T2 sequence (O43614 1-444): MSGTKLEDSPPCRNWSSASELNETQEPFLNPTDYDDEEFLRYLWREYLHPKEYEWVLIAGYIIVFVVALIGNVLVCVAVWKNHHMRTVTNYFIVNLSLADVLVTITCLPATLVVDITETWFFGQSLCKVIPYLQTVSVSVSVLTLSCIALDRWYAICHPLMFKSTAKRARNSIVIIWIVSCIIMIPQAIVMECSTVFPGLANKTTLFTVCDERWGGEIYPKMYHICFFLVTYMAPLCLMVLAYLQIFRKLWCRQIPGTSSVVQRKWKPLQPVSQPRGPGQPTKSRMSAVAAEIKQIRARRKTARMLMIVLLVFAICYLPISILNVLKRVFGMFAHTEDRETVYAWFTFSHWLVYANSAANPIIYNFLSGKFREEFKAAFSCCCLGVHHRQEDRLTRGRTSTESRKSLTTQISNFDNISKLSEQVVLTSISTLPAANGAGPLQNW
Description: as §1, §2, §3, §4, §5, §6, §7

[1] = measured with FLIPR 2, 3 nM orexin-A as agonist
[2] = marked with *: measured with FLIPR Tetra, 3 nM orexin-A as agonist

SMILES | IC50 (human orexin-1 receptor; [1]) [nM] | IC50 (human orexin-2 receptor; [1]) [nM] | IC50 (human orexin-1 receptor; [2]) [nM] | IC50 (human orexin-2 receptor; [2]) [nM]
Cn1nc(C(=O)NC[C@@H]2CCCN2C(=O)c2nc(-c3cccnc3)sc2-c2cccc(Cl)c2)c2ccccc21 [Example 44, (S)-1-methyl-1H-indazole-3-carboxylic acid{1-[5-(3-chloro-phenyl)-2-pyridin-3-yl-thiazole-4-carbonyl]-pyrrolidin-2-ylmethyl}-amide] |  |  | 9 | 18
Cc1cccc(-c2nc(C(=O)N3CCC[C@H]3CNC(=O)c3c(C)nc4sccn34)c(-c3ccc(F)cc3)s2)c1 [Example 45, (S)-6-methyl-imidazo[2,1-b]thiazole-5-carboxylic acid{1-[5-(4-fluoro-phenyl)-2-m-tolyl-thiazole-4-carbonyl]-pyrrolidin-2-ylmethyl}-amide] | 1 | 12 |  | 
COc1cccc(-c2nc(C(=O)N3CCCC[C@H]3CNC(=O)c3c(C)nc4sccn34)c(-c3ccc(F)cc3)s2)c1 [Example 5, (S)-6-methyl-imidazo[2,1-b]thiazole-5-carboxylic acid{1-[5-(4-fluoro-phenyl)-2-(3-methoxy-phenyl)-thiazole-4-carbonyl]-piperidin-2-ylmethyl}-amide] | 2 | 7 |  | 
Cc1nc2sccn2c1C(=O)NC[C@@H]1CCCCN1C(=O)c1nc(-c2ccc(F)cc2)sc1-c1ccc(F)cc1 [Example 3] | 1 | 24 |  | 

Continued, values first:

IC50 (human orexin-1 receptor; [1]) [nM] | IC50 (human orexin-2 receptor; [1]) [nM] | IC50 (human orexin-1 receptor; [2]) [nM] | IC50 (human orexin-2 receptor; [2]) [nM] | SMILES
2 | 8 |  |  | Cc1ccc(-c2sc(-c3ccccc3)nc2C(=O)N2CCCC[C@H]2CNC(=O)c2c(C)nc3sccn23)cc1 [Example 38, (S)-6-methyl-imidazo[2,1-b]thiazole-5-carboxylic acid[1-(2-phenyl-5-p-tolyl-thiazole-4-carbonyl)-piperidin-2-ylmethyl]-amide]
 |  | 20 | 68 | O=C(NC[C@@H]1CCCCN1C(=O)c1nc(-c2ccccc2)sc1-c1ccccc1F)c1cccc2c1CCO2 [Example 17, (S)-2,3-dihydro-benzofuran-4-carboxylic acid{1-[5-(2-fluoro-phenyl)-2-phenyl-thiazole-4-carbonyl]-piperidin-2-ylmethyl}-amide]
 |  | 10 | 60 | Cn1cc(C(=O)NC[C@@H]2CCCCN2C(=O)c2nc(-c3ccccc3)sc2-c2ccccc2F)c2ccccc21 [Example 24, (S)-1-methyl-1H-indole-3-carboxylic acid{1-[5-(2-fluoro-phenyl)-2-phenyl-thiazole-4-carbonyl]-piperidin-2-ylmethyl}-amide]
